Laboratory results as given in ChEMBL document CHEMBL5252637, “Identification of a new class of proteasome inhibitors based on a naphthyl-azotricyclic-urea-phenyl scaffold” (RSC Med Chem, 2023).

What was measured:
[1] = biological target: T1, Proteasome Macropain subunit MB1 (Homo sapiens, UniProt P28074); assay: Inhibition of human 20S constitutive proteosome beta5c subunit using Suc-LLVY-AMC as substrate measured after 10 mins by fluorescence based analysis
T1 sequence (P28074 whole entry): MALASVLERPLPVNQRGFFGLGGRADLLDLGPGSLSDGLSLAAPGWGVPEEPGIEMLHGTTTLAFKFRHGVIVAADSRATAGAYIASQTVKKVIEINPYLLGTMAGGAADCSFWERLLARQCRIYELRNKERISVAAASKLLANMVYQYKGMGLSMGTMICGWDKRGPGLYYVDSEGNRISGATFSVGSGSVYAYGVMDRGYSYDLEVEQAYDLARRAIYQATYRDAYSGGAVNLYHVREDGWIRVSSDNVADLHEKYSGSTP

[2] = biological target: T1, Proteasome Macropain subunit MB1; assay: Competitive inhibition of human 20S constitutive proteosome beta5c subunit using Suc-LLVY-AMC as substrate measured after 10 mins by fluorescence based analysis

Row | SMILES | IC50 [1] [µM] | Ki [2] [µM]
1 | COc1ccccc1NC(=O)Nc1ccc2n(c1=O)C[C@@H]1C[C@H]2CN(C(=O)c2ccccn2)C1 | 560 | –
2 | N#Cc1cccc(NC(=O)Nc2ccc3n(c2=O)C[C@@H]2C[C@H]3CN(C(=O)c3ccccc3)C2)c1 | 201 | –
3 | CC(=O)N1C[C@H]2C[C@@H](C1)c1ccc(NC(=O)Nc3cccc(C#N)c3)c(=O)n1C2 | 491 | –
4 | O=C(Nc1ccccc1)Nc1ccc2n(c1=O)C[C@@H]1C[C@H]2CN(C(=O)c2ccccn2)C1 | > 500 | –

The remaining compounds from weak to strong by IC50 [1], led by results:

Row | IC50 [1] [µM] | Ki [2] [µM] | SMILES
5 | 440 | – | N#Cc1cccc(NC(=O)Nc2ccc3n(c2=O)C[C@@H]2C[C@H]3CN(C(=O)c3cccnc3)C2)c1
6 | 11.1 | 9.69 | O=C(Nc1ccccc1)Nc1ccc2n(c1=O)C[C@@H]1C[C@H]2CN(C(=O)c2ccc3ccccc3c2)C1
7 | 10.3 | 3.42 | N#Cc1cccc(NC(=O)Nc2ccc3n(c2=O)C[C@@H]2C[C@H]3CN(C(=O)c3ccc4ccccc4c3)C2)c1
8 | 6.65 | 4.6 | COc1ccccc1NC(=O)Nc1ccc2n(c1=O)C[C@@H]1C[C@H]2CN(C(=O)c2ccc3ccccc3c2)C1
9 | 3.43 | 1.14 | O=C(Nc1ccc(Cl)cc1)Nc1ccc2n(c1=O)C[C@@H]1C[C@H]2CN(C(=O)c2ccc3ccccc3c2)C1
